[invAb] = inverted abasic unit; m = 2'-O-methyl; r = 2'-OH (RNA); f = 2'-fluoro
Experiments:
mSCNN1A mRNA = experiment: Screening of ENaCα siNAs in mouse NIH 3T3 cells (quantitative RT-PCR); format: cell-based; set-up: Percent Reduction of the mSCNN1A mRNA relative to a non-targeting control siNA / Mouse % KD (efficacy of ENaCα mRNA knockdown): concentration or dose not given beside the values; conditions: for Mean (mSCNN1A expression normalized to the level of m36B4) / Percent Reduction of the mSCNN1A mRNA relative to a non-targeting control siNA / Avg ENaCα Expression (mSCNN1A) / Avg 36B4 Expression: mouse NIH 3T3 cells, n = 3; for Mean (mSCNN1A expression normalized to the level of m36B4) / Percent Reduction of the mSCNN1A mRNA relative to a non-targeting control siNA / Avg 36B4 Expression: 24 hours post-transfection; for Avg ENaCα Expression (mSCNN1A): harvested 24 hours post-transfection; for Avg 36B4 Expression: housekeeping gene used for normalisation
Procedure, shortened: (§1)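 Knockdown read-out: qRT-PCR quantified against a standard curve of same-cell-line RNA, ENaCα normalized to species housekeeping gene (GAPDH or 36B4) and expressed versus non-targeting control. Cells received lipid-complexed siNA, 25 nM final, in triplicate and were assayed at 24 h; IC50 by variable-slope sigmoidal fit.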

rSCNN1A (r ENaCα) mRNA = experiment: Screening of ENaCα siNAs in Rat H-4-II-E cells (quantitative RT-PCR); format: cell-based; set-up: Percent Reduction of the r ENaCα mRNA relative to a non-targeting control siNA (NTCs) / Rat % KD (efficacy of ENaCα mRNA knockdown): concentration or dose not given beside the values; conditions: for Mean (rSCNN1A expression normalized to the level of rGAPDH) / Percent Reduction of the r ENaCα mRNA relative to a non-targeting control siNA (NTCs) / Avg ENaCα Expression (rSCNN1A) / Avg GAPDH Expression (rGAPDH): Rat H-4-II-E cells, n = 3; for Mean (rSCNN1A expression normalized to the level of rGAPDH) / Percent Reduction of the r ENaCα mRNA relative to a non-targeting control siNA (NTCs) / Avg GAPDH Expression (rGAPDH): 24 hours post-transfection; for Avg ENaCα Expression (rSCNN1A): harvested 24 hours post-transfection; for Avg GAPDH Expression (rGAPDH): housekeeping gene used for normalisation
Procedure, shortened: as §1

“B ccGcAuGAAGAcGGccuuc TTB / GAAGGccGucuucAuGcGGUU (chain 1 CCGCAUGAAGACGGCCUUCTT; chain 2 GAAGGCCGUCUUCAUGCGGUU; siRNA; chain 1: DNA at AGT, 2'-fluoro at CU, [invAb] at 5' end, 3' end, backbone not given here; chain 2: sugars from the 5' end rrrmmffmfffffmfmfmmmm, backbone not given here) [Site 339]” was tested, and the “Mean (mSCNN1A expression normalized to the level of m36B4)” value (mSCNN1A mRNA) was 0.35, the “Percent Reduction of the mSCNN1A mRNA relative to a non-targeting control siNA” value (mSCNN1A mRNA) was −44.9% and the “Avg ENaCα Expression (mSCNN1A)” value (mSCNN1A mRNA) was 5.05. The “Avg 36B4 Expression” value (mSCNN1A mRNA) was 14.61, the “Mean (rSCNN1A expression normalized to the level of rGAPDH)” value (rSCNN1A (r ENaCα) mRNA) was 0.79 and the “Percent Reduction of the r ENaCα mRNA relative to a non-targeting control siNA (NTCs)” value (rSCNN1A (r ENaCα) mRNA) was 38.3%. For the same substance, the “Avg ENaCα Expression (rSCNN1A)” value (rSCNN1A (r ENaCα) mRNA) was 15.81 and the “Avg GAPDH Expression (rGAPDH)” value (rSCNN1A (r ENaCα) mRNA) was 19.92.
In the case of “B uuAuGGAuGAuGGuGGcuu TTB / AAGccAccAucAuccAuAAUU (sense UUAUGGAUGAUGGUGGCUUTT; antisense AAGCCACCAUCAUCCAUAAUU; siRNA; B caps on sense ends, letter-case modifications not given here, further chemistry not given here) [Site 1181]”, the “Mean (mSCNN1A expression normalized to the level of m36B4)” value (mSCNN1A mRNA) is reported as 0.04, the “Percent Reduction of the mSCNN1A mRNA relative to a non-targeting control siNA” value (mSCNN1A mRNA) is reported as 84.4% and the “Avg ENaCα Expression (mSCNN1A)” value (mSCNN1A mRNA) is reported as 0.54. For the same substance, the “Avg 36B4 Expression” value (mSCNN1A mRNA) was 15.48, the IC50 (mSCNN1A mRNA; mouse cell line, dose response, read-out: Mouse IC50 (potency of ENaCα mRNA knockdown)) was 4.1 nM and the “Mouse % KD (efficacy of ENaCα mRNA knockdown)” value (mSCNN1A mRNA; mouse cell line, summary) was 84%. The “Mean (rSCNN1A expression normalized to the level of rGAPDH)” value (rSCNN1A (r ENaCα) mRNA) was 0.41, the “Percent Reduction of the r ENaCα mRNA relative to a non-targeting control siNA (NTCs)” value (rSCNN1A (r ENaCα) mRNA) was 68.1% and the “Avg ENaCα Expression (rSCNN1A)” value (rSCNN1A (r ENaCα) mRNA) was 10.34. The “Avg GAPDH Expression (rGAPDH)” value (rSCNN1A (r ENaCα) mRNA) was 24.78, the IC50 (rSCNN1A (r ENaCα) mRNA; rat cell line, dose response, read-out: Rat IC50 (potency of ENaCα mRNA knockdown)) was 1 nM and the “Rat % KD (efficacy of ENaCα mRNA knockdown)” value (rSCNN1A (r ENaCα) mRNA; rat cell line, summary) was 68%.
In the case of “B ccAuccGccuGGuGuGcuc TTB / GAGcAcAccAGGcGGAuGGUU (chain 1 CCAUCCGCCUGGUGUGCUCTT; chain 2 GAGCACACCAGGCGGAUGGUU; siRNA; chain 1: DNA at AGT, 2'-fluoro at CU, [invAb] at 5' end, 3' end, backbone not given here; chain 2: sugars from the 5' end rrrfmfmffmmmfmmmfmmmm, backbone not given here) [Site 311]”, the “Mean (mSCNN1A expression normalized to the level of m36B4)” value (mSCNN1A mRNA) is reported as 0.23, the “Percent Reduction of the mSCNN1A mRNA relative to a non-targeting control siNA” value (mSCNN1A mRNA) is reported as 4.6% and the “Avg ENaCα Expression (mSCNN1A)” value (mSCNN1A mRNA) is reported as 3.83. For the same substance, the “Avg 36B4 Expression” value (mSCNN1A mRNA) was 16.80, the “Mean (rSCNN1A expression normalized to the level of rGAPDH)” value (rSCNN1A (r ENaCα) mRNA) was 0.83 and the “Percent Reduction of the r ENaCα mRNA relative to a non-targeting control siNA (NTCs)” value (rSCNN1A (r ENaCα) mRNA) was 35.2%. For the same substance, the “Avg ENaCα Expression (rSCNN1A)” value (rSCNN1A (r ENaCα) mRNA) was 16.42 and the “Avg GAPDH Expression (rGAPDH)” value (rSCNN1A (r ENaCα) mRNA) was 19.71.
“B cAGAGcAGAAuGAcuucAu TTB / AUGAAGucAuucuGcucuGUU (sense CAGAGCAGAAUGACUUCAUTT; antisense AUGAAGUCAUUCUGCUCUGUU; siRNA; sense: DNA at AGT, 2'-fluoro at CU, [invAb] at 5' end, 3' end, backbone not given here; antisense: sugars from the 5' end rrrmmmffmffffmffffmmm, backbone not given here) [Site 1100]” was tested, and the “Mean (mSCNN1A expression normalized to the level of m36B4)” value (mSCNN1A mRNA) was 0.24, the “Percent Reduction of the mSCNN1A mRNA relative to a non-targeting control siNA” value (mSCNN1A mRNA) was −1.5% and the “Avg ENaCα Expression (mSCNN1A)” value (mSCNN1A mRNA) was 3.43. The “Avg 36B4 Expression” value (mSCNN1A mRNA) was 14.25, the “Mean (rSCNN1A expression normalized to the level of rGAPDH)” value (rSCNN1A (r ENaCα) mRNA) was 0.83 and the “Percent Reduction of the r ENaCα mRNA relative to a non-targeting control siNA (NTCs)” value (rSCNN1A (r ENaCα) mRNA) was 35.4%. For the same substance, the “Avg ENaCα Expression (rSCNN1A)” value (rSCNN1A (r ENaCα) mRNA) was 21.68 and the “Avg GAPDH Expression (rGAPDH)” value (rSCNN1A (r ENaCα) mRNA) was 26.15.
In the case of “B uGGcuGuGccuAcAucuuc TTB / GAAGAuGuAGGcAcAGccAUU (sense UGGCUGUGCCUACAUCUUCTT; antisense GAAGAUGUAGGCACAGCCAUU; siRNA; sense: DNA at AGT, 2'-fluoro at CU, [invAb] at 5' end, 3' end, backbone not given here; antisense: sugars from the 5' end rrrmmfmfmmmfmfmmffmmm, backbone not given here) [Site 1386]”, the “Mean (mSCNN1A expression normalized to the level of m36B4)” value (mSCNN1A mRNA) is reported as 0.09, the “Percent Reduction of the mSCNN1A mRNA relative to a non-targeting control siNA” value (mSCNN1A mRNA) is reported as 31.9% and the “Avg ENaCα Expression (mSCNN1A)” value (mSCNN1A mRNA) is reported as 2.35. The “Avg 36B4 Expression” value (mSCNN1A mRNA) was 25.00, the “Mean (rSCNN1A expression normalized to the level of rGAPDH)” value (rSCNN1A (r ENaCα) mRNA) was 0.48 and the “Percent Reduction of the r ENaCα mRNA relative to a non-targeting control siNA (NTCs)” value (rSCNN1A (r ENaCα) mRNA) was 48.3%. The “Avg ENaCα Expression (rSCNN1A)” value (rSCNN1A (r ENaCα) mRNA) was 17.21 and the “Avg GAPDH Expression (rGAPDH)” value (rSCNN1A (r ENaCα) mRNA) was 36.31.
For “B AccuGGGcAGccAGuGGAG TTB / CUCcAcuGGcuGcccAGGuUU (sense ACCUGGGCAGCCAGUGGAGTT; antisense CUCCACUGGCUGCCCAGGUUU; siRNA; sense: DNA at AGT, 2'-fluoro at CU, [invAb] at 5' end, 3' end, backbone not given here; antisense: sugars from the 5' end rrrfmffmmffmfffmmmfmm, backbone not given here) [Site 1748]”, the “Mean (mSCNN1A expression normalized to the level of m36B4)” value (mSCNN1A mRNA) was 0.15, the “Percent Reduction of the mSCNN1A mRNA relative to a non-targeting control siNA” value (mSCNN1A mRNA) was −12.7% and the “Avg ENaCα Expression (mSCNN1A)” value (mSCNN1A mRNA) was 4.06. The “Avg 36B4 Expression” value (mSCNN1A mRNA) was 26.15, the “Mean (rSCNN1A expression normalized to the level of rGAPDH)” value (rSCNN1A (r ENaCα) mRNA) was 0.60 and the “Percent Reduction of the r ENaCα mRNA relative to a non-targeting control siNA (NTCs)” value (rSCNN1A (r ENaCα) mRNA) was 34.7%. The “Avg ENaCα Expression (rSCNN1A)” value (rSCNN1A (r ENaCα) mRNA) was 26.11 and the “Avg GAPDH Expression (rGAPDH)” value (rSCNN1A (r ENaCα) mRNA) was 43.45.
